Paper PMC7522027 (Disease Models & Mechanisms, 2020)

Assays:
[1] = system: BMP2-induced SMAD1/5-dependent BRE-luc transcriptional reporter; test: BMP2-induced BRE-luc transcriptional reporter assay in HepG2 cells; assay type: cell-based, human; settings: HepG2, BMP2 50 ng/ml; cercosporamide 100 nM to 10 µM, LDN-193189 200 nM
Description: For luciferase transcriptional reporter assays, HepG2 cells were seeded in 9-cm plates at ∼60% confluency and transfected with polyethyleneimine (PEI). Twenty-four hours later, the transfected cells were seeded in 24-well plates at ∼60% confluency. Another 24 h later, the cells were serum starved for 6 h. Subsequently the cells were treated with compound or DMSO for 30 min. Thereafter, the cells were stimulated with BMP2 in the presence of compounds (or DMSO) for 16 h (overnight). Subsequently, the cells were washed with PBS and lysed. Luciferase activity was measured using the luciferase reporter assay system from Promega (Leiden, The Netherlands) by a Perkin Elmer luminometer Victor^3 1420. Each DNA transfection mixture was equalized with empty vector when necessary and every experiment was performed in triplicate. β-galactosidase expression construct was co-transfected and β-galactosidase was measured to normalize for differences in transfection efficiency. The BRE-luc reporter construct has been reported previously ([Korchynskyi and ten Dijke, 2002]).

[2] = molecular target: T1, caALK2 (Homo sapiens, UniProt Q04771, Q207D); test: caALK2-induced SMAD1/5 phosphorylation in HEK 293T cells; assay type: cell-based; settings: cercosporamide 1-10 µM, LDN193189 200 nM
T1 construct: expressed in transfected cells; host or cells: HEK 293T
T1 sequence (Q04771 21-509 Q207D): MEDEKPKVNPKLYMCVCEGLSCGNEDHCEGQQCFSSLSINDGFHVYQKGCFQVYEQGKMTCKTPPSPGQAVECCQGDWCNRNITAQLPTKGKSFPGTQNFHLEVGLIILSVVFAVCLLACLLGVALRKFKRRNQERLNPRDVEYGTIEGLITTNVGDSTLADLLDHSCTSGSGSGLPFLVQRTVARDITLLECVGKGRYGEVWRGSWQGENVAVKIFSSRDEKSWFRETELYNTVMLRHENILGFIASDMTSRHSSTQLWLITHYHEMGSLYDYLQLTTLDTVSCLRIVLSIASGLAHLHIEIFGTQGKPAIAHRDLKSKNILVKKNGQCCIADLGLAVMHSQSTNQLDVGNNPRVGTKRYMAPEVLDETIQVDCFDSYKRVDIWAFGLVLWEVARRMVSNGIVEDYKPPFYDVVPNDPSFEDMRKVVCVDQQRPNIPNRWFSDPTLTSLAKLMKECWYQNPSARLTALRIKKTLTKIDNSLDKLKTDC
Text: (§1) HepG2 or HEK 293T cells were lysed in Laemmli sample buffer. Proteins were separated by sodium dodecyl sulfate polyacrylamide gel electrophoresis (SDS-PAGE) and transferred onto […] polyvinylidene difluoride (PVDF) membrane (IPVH00010, Merck Millipore). Membranes were blocked using 5% non-fat dry milk in Tris-buffered saline with 0.1% Tween 20 (655204, Merck Millipore) and probed with the respective primary and secondary antibodies. The signal was detected using Clarity™ Western ECL Substrate (1705060, Bio-Rad) and ChemiDoc Imaging System (17001402, Bio-Rad). The antibodies used for immunoblotting were raised against the following proteins: phospho-SMAD1/5/8 ([Persson et al., 1998]; 1:1000), SMAD1 (Cell Signaling Technology, #6944; 1:1000), GAPDH (Merck Millipore, #G8795; 1:5000) and hemagglutinin (HA; Roche, #12CA5; 1:1000).
(§2) For experiments with the caALK type I receptor constructs, HEK 293T cells were seeded in 24-well plates at ∼90% confluency and transfected with the DNA expression constructs in the presence of PEI. Thirty hours after transfection, the cells were added to serum-starved medium and treated with compounds for 16 h (overnight). Subsequently, the cells were washed with PBS and lysed in Laemmli sample buffer. […]

[3] = molecular target: T2, anaplastic lymphoma kinase (ALK wt, GST-HIS-tag) (Homo sapiens, UniProt Q9UM73); test: radiometric protein kinase assay, anaplastic lymphoma kinase; assay type: biochemical; settings: Fig. 7A
T2 construct: GST; His; purchased ProQinase GmbH (Freiburg, Germany); host or cells: bacteria (so in the source)
Description: (§3) IC50 values were calculated using Prism 5.04 for Windows (GraphPad, San Diego, CA, USA; www.graphpad.com). The mathematical model used was ‘Sigmoidal response (variable slope)’ with parameters ‘top’ fixed at 100% and ‘bottom’ at 0%. The fitting method used was a least-squares fit.

[4] = molecular target: T3, TGFB-R1 (ALK5) (Homo sapiens, UniProt P36897); test: radiometric protein kinase assay, ALK5; assay type: biochemical; settings: [ATP] = 1 μM; Fig. 7K
T3 construct: purchased ProQinase GmbH (Freiburg, Germany); host or cells: bacteria (so in the source)
T3 sequence (P36897 34-503): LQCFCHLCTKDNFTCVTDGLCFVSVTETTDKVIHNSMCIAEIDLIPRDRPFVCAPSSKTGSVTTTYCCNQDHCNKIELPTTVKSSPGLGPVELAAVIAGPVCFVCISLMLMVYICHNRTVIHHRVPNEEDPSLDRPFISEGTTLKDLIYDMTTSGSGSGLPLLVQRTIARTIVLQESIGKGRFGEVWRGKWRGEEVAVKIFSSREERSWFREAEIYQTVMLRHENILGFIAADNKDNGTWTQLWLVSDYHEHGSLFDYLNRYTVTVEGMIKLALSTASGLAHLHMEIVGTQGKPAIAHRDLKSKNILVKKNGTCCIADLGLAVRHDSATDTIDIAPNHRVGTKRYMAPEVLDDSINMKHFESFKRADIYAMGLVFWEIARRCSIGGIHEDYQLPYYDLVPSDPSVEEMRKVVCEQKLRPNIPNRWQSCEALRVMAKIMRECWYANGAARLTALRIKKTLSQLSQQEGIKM
Description: as §3

[5] = system: zebrafish embryos; test: zebrafish embryo assay (morphological developmental defects at 48 hpf); assay type: in vivo, zebrafish (Danio rerio)
Description: Zebrafish eggs obtained from family crosses of Tuebingen long fin zebrafish lines were used to assess the biological activity of all samples. The eggs were washed with fresh E3 medium and subsequently divided over 24-well plates, with ten embryos per well in 1000 µl E3 medium. Samples were added to the wells at various times as mentioned in the figures and legends. At 48 hpf, the zebrafish embryos were inspected for morphological developmental defects. Embryos displaying morphological defects were imaged using a Leica MZFLIII microscope equipped with a Leica DFC320 camera or Leica M165 FC microscope equipped with a Leica DMC5400 camera.

[6] = system: caALK6; test: caALK6-induced SMAD1/5 phosphorylation in HEK 293T cells; assay type: cell-based, human; settings: cercosporamide 1-10 µM, LDN193189 200 nM
Text: as §1, §2

[7] = molecular target: T4, MEK (MEK1 wt) (Homo sapiens, UniProt Q02750); test: radiometric protein kinase assay, MEK; assay type: biochemical; settings: [ATP] = 3 μM; Fig. 7H
T4 construct: purchased ProQinase GmbH (Freiburg, Germany); host or cells: bacteria (so in the source)
Description: as §3

[8] = molecular target: T5, BMPR1A (ALK3) (Homo sapiens, UniProt P36894); test: radiometric protein kinase assay, ALK3; assay type: biochemical; settings: [ATP] = 0.3μM; Fig. 7F
T5 construct: purchased ProQinase GmbH (Freiburg, Germany); host or cells: bacteria (so in the source)
T5 sequence (P36894 24-532): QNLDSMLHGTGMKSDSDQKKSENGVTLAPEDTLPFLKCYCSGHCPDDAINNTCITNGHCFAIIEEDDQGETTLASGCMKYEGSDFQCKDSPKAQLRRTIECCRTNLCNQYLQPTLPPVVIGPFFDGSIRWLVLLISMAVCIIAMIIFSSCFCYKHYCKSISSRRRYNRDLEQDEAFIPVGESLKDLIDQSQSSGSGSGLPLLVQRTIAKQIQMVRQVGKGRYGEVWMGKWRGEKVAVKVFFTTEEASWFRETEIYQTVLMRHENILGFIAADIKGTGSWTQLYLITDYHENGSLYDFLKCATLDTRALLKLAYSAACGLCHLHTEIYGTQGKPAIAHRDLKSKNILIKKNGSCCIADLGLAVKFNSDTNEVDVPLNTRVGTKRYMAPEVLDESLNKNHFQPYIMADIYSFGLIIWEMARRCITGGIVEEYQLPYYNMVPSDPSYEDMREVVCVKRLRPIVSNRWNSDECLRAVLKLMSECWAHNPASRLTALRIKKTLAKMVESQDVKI
Description: as §3

T2 sequence (Q9UM73 19-1620): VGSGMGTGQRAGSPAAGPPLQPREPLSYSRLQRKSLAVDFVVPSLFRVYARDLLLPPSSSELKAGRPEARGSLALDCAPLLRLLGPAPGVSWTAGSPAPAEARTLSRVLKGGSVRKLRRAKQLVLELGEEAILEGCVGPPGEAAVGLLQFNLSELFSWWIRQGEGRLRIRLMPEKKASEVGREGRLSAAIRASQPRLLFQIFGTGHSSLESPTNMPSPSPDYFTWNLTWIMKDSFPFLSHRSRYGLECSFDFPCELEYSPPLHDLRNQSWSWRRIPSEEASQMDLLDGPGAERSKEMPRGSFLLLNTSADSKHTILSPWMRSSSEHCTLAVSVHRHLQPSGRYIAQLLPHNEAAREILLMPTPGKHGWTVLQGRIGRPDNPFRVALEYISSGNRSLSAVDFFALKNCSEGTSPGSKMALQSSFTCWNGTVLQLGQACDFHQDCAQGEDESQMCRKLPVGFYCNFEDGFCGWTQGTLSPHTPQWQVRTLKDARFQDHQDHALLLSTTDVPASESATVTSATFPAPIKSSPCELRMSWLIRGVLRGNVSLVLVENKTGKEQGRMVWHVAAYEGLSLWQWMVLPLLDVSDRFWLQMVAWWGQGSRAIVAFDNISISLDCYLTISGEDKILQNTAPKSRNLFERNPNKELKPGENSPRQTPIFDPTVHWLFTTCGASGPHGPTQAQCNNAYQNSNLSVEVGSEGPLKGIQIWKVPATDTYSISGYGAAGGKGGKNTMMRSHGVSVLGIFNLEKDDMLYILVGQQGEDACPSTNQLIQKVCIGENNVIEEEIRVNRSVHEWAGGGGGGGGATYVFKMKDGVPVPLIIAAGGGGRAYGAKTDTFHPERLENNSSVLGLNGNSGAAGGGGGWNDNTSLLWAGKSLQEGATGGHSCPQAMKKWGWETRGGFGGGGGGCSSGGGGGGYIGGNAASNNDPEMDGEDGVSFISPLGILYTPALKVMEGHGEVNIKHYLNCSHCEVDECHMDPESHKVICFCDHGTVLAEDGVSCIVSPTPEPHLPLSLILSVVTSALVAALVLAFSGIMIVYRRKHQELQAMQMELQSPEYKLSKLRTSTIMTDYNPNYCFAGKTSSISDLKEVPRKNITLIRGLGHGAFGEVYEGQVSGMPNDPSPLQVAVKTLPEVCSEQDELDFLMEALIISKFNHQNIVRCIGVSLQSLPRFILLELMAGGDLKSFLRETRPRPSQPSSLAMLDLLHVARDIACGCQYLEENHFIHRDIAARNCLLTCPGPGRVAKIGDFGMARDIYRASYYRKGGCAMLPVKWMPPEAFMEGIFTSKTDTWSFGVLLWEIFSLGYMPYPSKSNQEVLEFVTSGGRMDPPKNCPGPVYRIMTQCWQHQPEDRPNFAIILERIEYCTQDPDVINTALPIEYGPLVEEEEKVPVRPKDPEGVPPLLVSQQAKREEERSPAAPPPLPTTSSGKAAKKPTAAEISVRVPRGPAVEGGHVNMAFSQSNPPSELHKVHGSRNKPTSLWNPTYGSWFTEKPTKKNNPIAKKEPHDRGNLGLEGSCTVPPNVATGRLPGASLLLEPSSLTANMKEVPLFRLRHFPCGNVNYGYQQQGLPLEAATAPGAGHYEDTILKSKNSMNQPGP
T4 sequence (Q02750 whole entry): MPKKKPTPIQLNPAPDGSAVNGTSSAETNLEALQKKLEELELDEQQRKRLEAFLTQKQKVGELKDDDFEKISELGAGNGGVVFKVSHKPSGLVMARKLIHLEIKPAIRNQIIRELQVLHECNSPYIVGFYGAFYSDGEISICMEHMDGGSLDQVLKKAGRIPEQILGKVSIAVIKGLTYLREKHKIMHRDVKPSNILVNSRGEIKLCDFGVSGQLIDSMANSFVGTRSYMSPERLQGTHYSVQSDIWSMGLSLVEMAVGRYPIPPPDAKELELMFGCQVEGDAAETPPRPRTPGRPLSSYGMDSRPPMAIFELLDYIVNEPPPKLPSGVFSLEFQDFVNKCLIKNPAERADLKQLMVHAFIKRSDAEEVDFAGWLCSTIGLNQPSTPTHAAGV

CC(=O)C1=C(O)C=C2Oc3c(C(N)=O)c(O)cc(O)c3[C@]2(C)C1=O [cercosporamide, Cercosporamide]
effect on BMP2-induced BRE-luc activity [1]: inhibited the BMP2-induced response in a dose-dependent manner | effect on caALK2-induced SMAD1/5 phosphorylation [2]: inhibited SMAD1/5 phosphorylation | IC50 [3]: 10000 nM | IC50 [4]: 0.29 µM | phenotype, combination treatment ([5]; 50 nM cercosporamide in combination with 5 µM LDN-193189, from 7 hpf onwards): partial loss of the ventral fin | developmental defects, single treatment ([5]; 50 nM, from 7 hpf onwards): did not induce detectable developmental defects | phenotype at 48 hpf ([5]; 100 nM, treatment from 7 hpf): abolished the effect | phenotype at 48 hpf ([5]; 200 nM, treatment started at 2 hpf): severely truncated phenotype | phenotype at 48 hpf ([5]; 200 nM, treatment started at 8 hpf): mild phenotype | phenotype at 48 hpf ([5]; 1.5 µM, treatment from 7 hpf): severely truncated phenotype | phenotype at 48 hpf ([5]; 3 µM, treatment from 7 hpf): severely truncated phenotype | lethal concentration in zebrafish embryos ([5]; treatment from 7 hpf, continuous until 48 hpf): above 3 µM | effect on caALK6-induced SMAD1/5 phosphorylation [6]: inhibited SMAD1/5 phosphorylation | IC50 [7]: 4.1 µM | IC50 [8]: 0.36 µM
